Data taken from patent US20260200928A1, “THERAPEUTIC COMPOUNDS” (Sanofi, priority 2022, published 2026).

Target: T1, human IL-17A (Homo sapiens, UniProt Q16552)
T1 construct: purchased R&D Systems 7955-IL/CF
T1 sequence (Q16552 24-155): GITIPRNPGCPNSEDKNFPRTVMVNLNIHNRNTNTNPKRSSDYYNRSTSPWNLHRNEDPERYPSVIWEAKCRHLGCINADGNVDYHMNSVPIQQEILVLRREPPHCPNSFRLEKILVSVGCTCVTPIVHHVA
Experiment: IL-17A AlphaLISA competition assay (block of IL-17A binding to its receptor IL-17RA)
Settings: mean IC50 (n≥2), block of IL-17A binding to IL-17RA
Summary of the method: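 Human recombinant IL-17A (7.5 nM stock) pre-incubated 30 min at RT with compound, then IL-17RA/Fc (5 nM stock) added for 90 min; AlphaLISA read with anti-Fc acceptor beads, biotinylated anti-IL-17A antibody (5 nM) and streptavidin donor beads (3 h, dark). IC50 from 4-parameter logistic fit, normalised to DMSO and 4 μM reference inhibitor; n≥2.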

IC50 [nM] | Structure (SMILES)
2080 | Cc1cnn(C)c1Cc1ccnc(NC(=O)[C@@H](NC(=O)OC(C)(C)C)[C@H]2CC[C@H](C)CC2)c1 [Example 51, tert-butyl ((S)-2-((4-((1,4-dimethyl-1H-pyrazol-5-yl)methyl)pyridin-2-yl)amino)-1-((1r,4S)-4-methylcyclohexyl)-2-oxoethyl)carbamate]
4760 | Cn1nccc1C(=O)NC(C(=O)Nc1cc(Cc2ccn(C)c(=O)c2)ccn1)C1CCC(F)(F)CC1 (stereo not drawn) [Example 54, N-(1-(4,4-difluorocyclohexyl)-2-((4-((1-methyl-2-oxo-1,2-dihydro-pyridin-4-yl)methyl)pyridin-2-yl)amino)-2-oxoethyl)-1-methyl-1H-pyrazole-5-carboxamide]
183 | Cc1cnn(C)c1Cc1ccnc(NC(=O)[C@@H](NC(=O)c2ccnn2C(C)C)[C@H]2CC[C@H](C)CC2)c1 [Example 55, N—((S)-2-((4-((1,4-dimethyl-1H-pyrazol-5-yl)methyl)pyridin-2-yl)amino)-1-((1r,4S)-4-methylcyclohexyl)-2-oxoethyl)-1-isopropyl-1H-pyrazole-5-carboxamide]
3750 | Cc1cc(COC(=O)N[C@H](C(=O)Nc2cc(CN3C[C@@H](C(F)(F)F)NC3=O)ccn2)C2CCC(F)(F)CC2)nn1C [Example 60, (1,5-Dimethyl-1H-pyrazol-3-yl)methyl ((S)-1-(4,4-difluorocyclohexyl)-2-oxo-2-((4-(((S)-2-oxo-4-(trifluoromethyl)imidazolidin-1-yl)methyl)pyridin-2-yl)amino)ethyl)carbamate]
612 | C[C@H]1CC[C@H]([C@H](NC(=O)c2nonc2C2CC2)C(=O)Nc2cc(CN3C[C@@H](C(F)(F)F)NC3=O)c(F)cn2)CC1 [Example 61, 4-cyclopropyl-N-((S)-2-((5-fluoro-4-(((S)-2-oxo-4-(trifluoromethyl)imidazolidin-1-yl)methyl)pyridin-2-yl)amino)-1-((1r,4S)-4-methylcyclohexyl)-2-oxo-ethyl)-1,2,5-oxadiazole-3-carboxamide]
1400 | Cc1nonc1C(=O)N[C@H](C(=O)Nc1cc(CN2C[C@@H](C(F)(F)F)NC2=O)c(F)cn1)[C@H]1CC[C@H](C)CC1 [Example 62, N-((S)-2-((5-fluoro-4-(((S)-2-oxo-4-(trifluoromethyl)-imidazolidin-1-yl)methyl)-pyridin-2-yl)amino)-1-((1r,4S)-4-methylcyclo-hexyl)-2-oxoethyl)-4-methyl-1,2,5-oxadiazole-3-carboxamide]
330 | CC(C)n1nccc1C(=O)N[C@H](C(=O)Nc1cc(CN2C[C@@H](C(F)(F)F)NC2=O)c(F)cn1)[C@H]1CC[C@H](C)CC1 [Example 63, N-((S)-2-((5-fluoro-4-(((S)-2-oxo-4-(trifluoromethyl)-imidazolidin-1-yl)methyl)-pyridin-2-yl)amino)-1-((1r,4S)-4-methylcyclo-hexyl)-2-oxoethyl)-1-isopropyl-1H-pyrazole-5-carboxamide]
1230 | Cn1nccc1C(=O)N[C@H](C(=O)Nc1cc(CN2C[C@@H](C(F)(F)F)NC2=O)c(F)cn1)[C@H]1CC[C@H](C)CC1 [Example 64, N-((S)-2-((5-fluoro-4-(((S)-2-oxo-4-(trifluoromethyl)-imidazolidin-1-yl)methyl)-pyridin-2-yl)amino)-1-((1r,4S)-4-methylcyclo-hexyl)-2-oxoethyl)-1-methyl-1H-pyrazole-5-carboxamide]
809 | C[C@H]1CC[C@H]([C@H](NC(=O)C2(F)CC2)C(=O)Nc2cc(CN3C[C@@H](C(F)(F)F)NC3=O)ccn2)CC1 [Example 67, 1-fluoro-N-((S)-1-((1r,4S)-4-methylcyclohexyl)-2-oxo-2-((4-(((S)-2-oxo-4-(trifluoromethyl)imidazolidin-1-yl)methyl)pyridin-2-yl)amino)ethyl)cyclopropane-1-carboxamide]

The remaining lines, values behind:

Structure (SMILES) | IC50 [nM]
Cn1nccc1C(=O)NC(C(=O)Nc1cc(Cc2ccc(=O)n(C)c2)ccn1)C1CCC(F)(F)CC1 (stereo not drawn) [Example 52, N-(1-(4,4-difluorocyclohexyl)-2-((4-((1-methyl-6-oxo-1,6-dihydro-pyridin-3-yl)methyl)pyridin-2-yl)amino)-2-oxoethyl)-1-methyl-1H-pyrazole-5-carboxamide] | 23900
Cc1cnn(C)c1Cc1ccnc(NC(=O)C(NC(=O)c2ccnn2C)C2CCC(F)(F)CC2)c1 (stereo not drawn) [Example 53] | 3880
Cc1cc(COC(=O)N[C@H](C(=O)Nc2cc(CN3C[C@@H](C(F)(F)F)NC3=O)ccn2)C2CCC(F)(F)CC2)no1 [Example 57, (5-Methylisoxazol-3-v)methyl ((S)-1-(4,4-difluorocyclohexyl)-2-oxo-2-((4-(((S)-2-oxo-4-(trifluoromethyl)imidazolidin-1-VI)methyl)pyridin-2-yl)amino)ethyl)carbamate] | 1960
Cc1nonc1COC(=O)N[C@H](C(=O)Nc1cc(CN2C[C@@H](C(F)(F)F)NC2=O)ccn1)C1CCC(F)(F)CC1 [Example 70, (4-Methyl-1,2,5-oxadiazol-3-yl)methyl ((S)-1-(4,4-difluorocyclohexyl)-2-oxo-2-((4-(((S)-2-oxo-4-(trifluoromethyl)imidazolidin-1-yl)methyl)pyridin-2-yl)amino)ethyl)carbamate] | 8000
COCC(c1ccnc(NC(=O)[C@@H](NC(=O)c2ccnn2C)C2CCC(C)CC2)c1)N1C[C@@H](C(F)(F)F)NC1=O (stereo partly drawn) [Example 76, N-((1S)-2-((4-(2-methoxy-1-((S)-2-oxo-4-(trifluoro-methyl)imidazolidin-1-yl)ethyl)pyridin-2-yl)amino)-1-((1r,4S)-4-methylcyclohexyl)-2-oxoethyl)-1-methyl-1H-pyrazole-5-carboxamide] | 93
Cc1n[nH]c(C)c1Cc1ccnc(NC(=O)[C@@H](NC(=O)OC(C)(C)C)[C@H]2CC[C@H](C)CC2)c1 [Example 79, Tert-butyl ((S)-2-((4-((3,5-dimethyl-1H-pyrazol-4-yl)methyl)pyridin-2-yl)amino)-1-((1r,4S)-4-methylcyclohexyl)-2-oxoethyl)carbamate] | 5270
CC(C)(C)OCC(NC(=O)c1nonc1C1CC1)C(=O)Nc1cc(CN2C[C@@H](C(F)(F)F)NC2=O)ccn1 (stereo partly drawn) [Example 82, N-(3-(tert-butoxy)-1-oxo-1-((4-(((S)-2-oxo-4-(trifluoromethyl)imidazolidin-1-yl)methyl)pyridin-2-yl)amino)propan-2-yl)-4-cyclopropyl-1,2,5-oxadiazole-3-carboxamide] | 1170
Cn1nccc1C(=O)NC(COC(C)(C)C)C(=O)Nc1cc(CN2C[C@@H](C(F)(F)F)NC2=O)ccn1 (stereo partly drawn) [Example 83, N-(3-(tert-butoxy)-1-oxo-1-((4-(((S)-2-oxo-4-(trifluoromethyl)imidazolidin-1-yl)methyl)pyridin-2-yl)amino)propan-2-yl)-1-methyl-1H-pyrazole-5-carboxamide] | 7110
O=C(CCC(F)(F)F)NC(c1ccnc(NC(=O)[C@@H](NC(=O)c2nonc2C2CC2)C2CCC(F)(F)CC2)c1)C1CC1 (stereo partly drawn) [Example 96, 4-Cyclopropyl-N-((1S)-2-((4-(cyclopropyl(4,4,4-trifluorobutanamido)-methyl)pyridin-2-yl)amino)-1-(4,4-difluorocyclohexyl)-2-oxoethyl)-1,2,5-oxadiazole-3-carboxamide] | 96
